Tested on: C3H spleen T cells
Assay: One-way mixed leukocyte reaction (MLR), allostimulatory capacity by [3H]TdR uptake
Assay type: cell-based, mouse
Conditions: zVAD-fmk 100 μM added at the beginning of 3-day MLR
Method: Mixed leukocyte reaction (MLR). To determine the allostimulatory capacity of DCs, one-way MLR were performed with γ-irradiated (20 Gy) DCs or spleen cells from B10 (allogeneic) or C3H (syngeneic) mice as stimulators and nylon wool-purified C3H spleen T cells (2×105) as responders. Cultures (200 μl) were established in triplicate in 96-well round-bottom microculture plates and maintained in complete medium in 5% CO2 in air at 37° C. for 3-4 days. [^3H]TdR (1 μCi/well) was added for the final 18 h of culture, and incorporation of [^3H]TdR into DNA was assessed by liquid scintillation counting in an automated counter. Results are expressed as mean cpm±1 SD. In apoptosis inhibition experiments, a common caspase inhibitor peptide, benzyloxycarbonyl-Val Ala-Asp-fluoromethyl ketone (zVAD-fmk; Alexis, San Diego, Calif.), was added (100 μM) at the beginning of the MLR culture. DMSO served as a control.
Allostimulatory capacity of liver-derived DEC205^+B220^+CD19^−cells. The allostimulatory capacity of DEC205^+, B220^+, CD19^−cells derived from B 10 liver NPCs was determined in a one-way MLR, performed as described above. […] Despite the high expression of MHC and costimulatory molecules, liver-derived DEC205^+B220^+CD19^−cells display low allostimulatory capacity.

For “benzyloxycarbonyl-Val Ala-Asp-fluoromethyl ketone [zVAD-fmk]”, the “T cell proliferation induced by liver-derived DEC205+B220+CD19− cells after caspase inhibition” value was “restored T cell proliferation”.

From patent US20040043483A1, “Novel tolerogenic dendritic cells and therapeutic uses therefor” (priority 2002, published 2004)
